The target in experiment [1] is T1, Kinase suppressor of Ras 1 (Homo sapiens) (UniProt Q8IVT5).
T1 sequence (whole entry): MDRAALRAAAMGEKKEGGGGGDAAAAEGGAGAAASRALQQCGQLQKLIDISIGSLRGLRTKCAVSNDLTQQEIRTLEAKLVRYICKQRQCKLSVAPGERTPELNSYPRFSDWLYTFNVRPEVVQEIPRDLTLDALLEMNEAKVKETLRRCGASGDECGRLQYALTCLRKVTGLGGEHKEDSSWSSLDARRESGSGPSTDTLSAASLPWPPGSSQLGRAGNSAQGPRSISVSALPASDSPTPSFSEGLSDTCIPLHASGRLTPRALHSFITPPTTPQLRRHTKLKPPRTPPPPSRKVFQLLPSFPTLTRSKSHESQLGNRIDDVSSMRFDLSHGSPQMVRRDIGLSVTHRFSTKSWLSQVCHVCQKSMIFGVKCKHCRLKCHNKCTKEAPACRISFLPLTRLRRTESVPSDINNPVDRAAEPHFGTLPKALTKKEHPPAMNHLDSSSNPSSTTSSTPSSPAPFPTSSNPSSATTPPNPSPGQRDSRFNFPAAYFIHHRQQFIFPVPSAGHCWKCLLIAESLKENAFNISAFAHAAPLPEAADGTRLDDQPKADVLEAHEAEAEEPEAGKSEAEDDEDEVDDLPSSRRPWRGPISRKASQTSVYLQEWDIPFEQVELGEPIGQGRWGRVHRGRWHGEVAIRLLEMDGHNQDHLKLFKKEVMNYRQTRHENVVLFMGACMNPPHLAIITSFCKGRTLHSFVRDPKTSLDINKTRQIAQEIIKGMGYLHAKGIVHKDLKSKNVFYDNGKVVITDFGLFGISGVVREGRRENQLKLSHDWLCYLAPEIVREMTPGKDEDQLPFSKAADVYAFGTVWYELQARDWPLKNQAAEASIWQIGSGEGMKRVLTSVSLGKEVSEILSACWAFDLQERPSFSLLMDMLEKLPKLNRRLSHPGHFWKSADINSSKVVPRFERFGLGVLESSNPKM
Kind of experiment: Selectivity interaction (Kinase panel (KiNativ target engagement assay in Jurkat cells)) EUB0001635a KSR1. In kind it is cell-based. The following applies: at 1 µM.

Experiment [2] concerns the target Death-associated protein kinase 2 (Homo sapiens) (UniProt Q9UIK4). The experiment can be described thus: Selectivity interaction (KinomeScan (DiscoverX)) EUB0000655a DAPK2. The following applies: at 10 µM.
For experiment [3], the target named is Fibroblast growth factor receptor 2 (Homo sapiens) (UniProt P21802). Kind of experiment: Selectivity interaction (KinomeScan (DiscoverX)) EUB0000655a FGFR2. To be noted: at 10 µM.
Experiment [4] deals with Protein kinase C theta type (Homo sapiens, UniProt Q04759). The experiment can be described thus: Selectivity interaction (KinomeScan (DiscoverX)) EUB0000655a PRKCQ. To be noted: at 10 µM.
Experiment [5] deals with Cyclin-dependent kinase 8 (Homo sapiens, UniProt P49336). The experiment can be described thus: Selectivity interaction (ActivX KiNativ screen (kinase selectivity in THP-1 cell lysates)) EUB0000639a CDK8. The class given is subcellular. To be noted: lysate.
For experiment [6], the target named is NT-3 growth factor receptor (Homo sapiens, UniProt Q16288). Kind of experiment: Selectivity interaction (KinomeScan (DiscoverX)) EUB0001049a NTRK3. To be noted: at 1 µM.
For experiment [7], the target named is T2, Serine/threonine-protein kinase Nek9 (Homo sapiens) (UniProt Q8TD19).
T2 sequence (whole entry): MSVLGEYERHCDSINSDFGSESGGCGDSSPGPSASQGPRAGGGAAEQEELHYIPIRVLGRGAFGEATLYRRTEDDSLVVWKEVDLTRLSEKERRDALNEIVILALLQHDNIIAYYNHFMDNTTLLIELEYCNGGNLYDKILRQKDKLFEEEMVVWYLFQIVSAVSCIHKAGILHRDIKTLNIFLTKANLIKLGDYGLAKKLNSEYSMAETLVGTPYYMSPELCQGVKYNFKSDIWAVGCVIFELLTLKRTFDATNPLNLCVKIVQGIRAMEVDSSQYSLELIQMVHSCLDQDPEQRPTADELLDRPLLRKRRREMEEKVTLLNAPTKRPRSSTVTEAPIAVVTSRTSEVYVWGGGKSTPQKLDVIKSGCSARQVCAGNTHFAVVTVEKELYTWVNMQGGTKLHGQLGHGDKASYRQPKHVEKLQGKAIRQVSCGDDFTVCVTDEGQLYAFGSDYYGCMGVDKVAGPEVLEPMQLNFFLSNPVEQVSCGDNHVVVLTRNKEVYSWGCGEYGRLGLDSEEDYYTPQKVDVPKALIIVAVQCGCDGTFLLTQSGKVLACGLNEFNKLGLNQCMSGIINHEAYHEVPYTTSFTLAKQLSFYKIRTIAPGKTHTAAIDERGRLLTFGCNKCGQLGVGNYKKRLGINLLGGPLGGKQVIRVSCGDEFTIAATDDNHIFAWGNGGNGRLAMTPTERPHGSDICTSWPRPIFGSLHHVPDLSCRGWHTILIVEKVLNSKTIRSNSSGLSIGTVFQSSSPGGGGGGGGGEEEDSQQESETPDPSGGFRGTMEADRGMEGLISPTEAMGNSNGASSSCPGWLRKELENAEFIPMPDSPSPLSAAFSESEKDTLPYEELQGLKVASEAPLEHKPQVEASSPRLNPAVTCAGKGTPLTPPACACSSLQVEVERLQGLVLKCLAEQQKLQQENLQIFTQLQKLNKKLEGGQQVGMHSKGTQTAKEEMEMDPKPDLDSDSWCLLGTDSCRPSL
The experiment can be described thus: Selectivity interaction (ProQinase) EUB0000171b NEK9.

The target of experiment [8] is Dual specificity tyrosine-phosphorylation-regulated kinase 1A (Homo sapiens, UniProt Q13627). Kind of experiment: Selectivity interaction (KinomeScan (DiscoverX)) EUB0001550a DYRK1A. To be noted: at 1 µM.
The target in experiment [9] is Histone-lysine N-methyltransferase 2C (Homo sapiens) (UniProt Q8NEZ4). Kind of experiment: Selectivity interaction (Methyltransferase screen (radiometric assays, panel of 8 PRMTs, 21 protein lysine methyltransferases, 3 DNA methyltransferases, and one RNA methyltransferase)) EUB0000272b MLL3.

Chain of Cyclin-dependent kinase 8 (P49336 whole entry): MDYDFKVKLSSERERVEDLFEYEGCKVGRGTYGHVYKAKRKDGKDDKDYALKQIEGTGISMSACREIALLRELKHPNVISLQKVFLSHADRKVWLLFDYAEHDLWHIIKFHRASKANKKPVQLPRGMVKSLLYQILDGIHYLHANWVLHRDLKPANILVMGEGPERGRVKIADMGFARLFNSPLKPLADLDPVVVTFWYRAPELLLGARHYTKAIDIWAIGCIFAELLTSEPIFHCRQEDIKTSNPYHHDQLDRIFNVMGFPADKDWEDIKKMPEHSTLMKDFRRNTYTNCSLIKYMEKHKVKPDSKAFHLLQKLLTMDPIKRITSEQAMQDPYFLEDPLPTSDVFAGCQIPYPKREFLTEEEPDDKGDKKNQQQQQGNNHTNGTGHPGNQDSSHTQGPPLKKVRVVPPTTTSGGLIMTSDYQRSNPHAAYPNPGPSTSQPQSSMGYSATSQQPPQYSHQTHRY
Chain of Protein kinase C theta type (Q04759 whole entry, looked up): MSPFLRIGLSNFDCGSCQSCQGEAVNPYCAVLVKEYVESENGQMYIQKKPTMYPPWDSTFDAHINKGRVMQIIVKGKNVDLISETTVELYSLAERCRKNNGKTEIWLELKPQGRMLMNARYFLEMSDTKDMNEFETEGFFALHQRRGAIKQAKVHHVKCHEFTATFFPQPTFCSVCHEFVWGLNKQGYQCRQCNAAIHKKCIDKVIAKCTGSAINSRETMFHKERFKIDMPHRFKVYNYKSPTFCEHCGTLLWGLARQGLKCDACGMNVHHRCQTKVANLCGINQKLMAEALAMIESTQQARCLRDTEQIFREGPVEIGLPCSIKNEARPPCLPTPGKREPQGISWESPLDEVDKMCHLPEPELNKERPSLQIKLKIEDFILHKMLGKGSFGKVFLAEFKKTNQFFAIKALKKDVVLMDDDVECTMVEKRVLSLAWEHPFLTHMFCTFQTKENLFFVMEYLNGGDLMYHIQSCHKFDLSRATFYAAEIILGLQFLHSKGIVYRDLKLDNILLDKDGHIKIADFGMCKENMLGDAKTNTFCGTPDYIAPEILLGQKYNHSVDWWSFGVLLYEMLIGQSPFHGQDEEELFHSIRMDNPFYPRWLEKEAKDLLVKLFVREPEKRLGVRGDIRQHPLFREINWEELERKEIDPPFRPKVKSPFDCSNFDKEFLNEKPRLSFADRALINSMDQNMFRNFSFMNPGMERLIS
Chain of NT-3 growth factor receptor (Q16288 32-839 limits assumed): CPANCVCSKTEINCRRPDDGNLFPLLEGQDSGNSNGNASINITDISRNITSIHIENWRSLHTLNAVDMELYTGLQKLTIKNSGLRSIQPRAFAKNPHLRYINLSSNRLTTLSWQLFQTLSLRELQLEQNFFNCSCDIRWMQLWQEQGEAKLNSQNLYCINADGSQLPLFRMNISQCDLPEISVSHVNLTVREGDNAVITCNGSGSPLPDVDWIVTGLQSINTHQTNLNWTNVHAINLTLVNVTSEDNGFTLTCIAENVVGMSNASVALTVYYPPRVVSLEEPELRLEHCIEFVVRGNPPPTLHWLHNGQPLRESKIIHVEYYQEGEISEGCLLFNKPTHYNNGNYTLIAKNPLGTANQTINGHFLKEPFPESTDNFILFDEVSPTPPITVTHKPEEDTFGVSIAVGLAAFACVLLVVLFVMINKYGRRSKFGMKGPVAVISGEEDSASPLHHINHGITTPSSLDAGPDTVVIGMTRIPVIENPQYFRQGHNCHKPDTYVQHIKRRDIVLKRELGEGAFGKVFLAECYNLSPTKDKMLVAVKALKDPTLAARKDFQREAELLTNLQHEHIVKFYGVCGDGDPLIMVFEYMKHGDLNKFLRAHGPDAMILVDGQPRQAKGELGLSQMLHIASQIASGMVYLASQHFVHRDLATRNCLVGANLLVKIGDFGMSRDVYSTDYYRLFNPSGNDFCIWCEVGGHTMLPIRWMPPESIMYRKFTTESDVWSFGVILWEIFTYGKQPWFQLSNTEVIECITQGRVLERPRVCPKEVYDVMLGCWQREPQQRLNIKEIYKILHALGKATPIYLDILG
Chain of Fibroblast growth factor receptor 2 (Homo sapiens) (P21802 22-821 limits assumed): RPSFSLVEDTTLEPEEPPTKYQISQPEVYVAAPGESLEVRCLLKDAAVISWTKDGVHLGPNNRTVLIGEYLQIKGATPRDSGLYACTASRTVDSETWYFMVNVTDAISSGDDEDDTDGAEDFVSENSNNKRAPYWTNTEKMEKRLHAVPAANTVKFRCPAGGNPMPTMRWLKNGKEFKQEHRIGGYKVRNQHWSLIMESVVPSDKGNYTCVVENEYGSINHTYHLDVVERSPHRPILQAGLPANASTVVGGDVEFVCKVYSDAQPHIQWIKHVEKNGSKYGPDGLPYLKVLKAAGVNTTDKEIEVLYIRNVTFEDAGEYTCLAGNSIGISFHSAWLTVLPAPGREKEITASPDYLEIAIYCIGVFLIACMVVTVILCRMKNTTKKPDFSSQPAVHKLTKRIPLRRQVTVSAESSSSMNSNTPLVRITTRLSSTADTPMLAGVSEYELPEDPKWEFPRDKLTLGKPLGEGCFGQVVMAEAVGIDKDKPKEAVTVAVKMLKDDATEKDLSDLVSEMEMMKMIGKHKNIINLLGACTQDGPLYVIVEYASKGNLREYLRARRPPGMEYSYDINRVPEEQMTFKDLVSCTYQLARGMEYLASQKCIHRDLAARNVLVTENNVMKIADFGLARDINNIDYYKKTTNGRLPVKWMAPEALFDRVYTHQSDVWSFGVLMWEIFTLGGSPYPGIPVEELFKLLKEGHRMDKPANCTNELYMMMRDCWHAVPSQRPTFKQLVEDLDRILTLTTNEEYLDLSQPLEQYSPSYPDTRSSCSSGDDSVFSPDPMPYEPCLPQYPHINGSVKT
Chain of Death-associated protein kinase 2 (Homo sapiens) (Q9UIK4 whole entry, looked up): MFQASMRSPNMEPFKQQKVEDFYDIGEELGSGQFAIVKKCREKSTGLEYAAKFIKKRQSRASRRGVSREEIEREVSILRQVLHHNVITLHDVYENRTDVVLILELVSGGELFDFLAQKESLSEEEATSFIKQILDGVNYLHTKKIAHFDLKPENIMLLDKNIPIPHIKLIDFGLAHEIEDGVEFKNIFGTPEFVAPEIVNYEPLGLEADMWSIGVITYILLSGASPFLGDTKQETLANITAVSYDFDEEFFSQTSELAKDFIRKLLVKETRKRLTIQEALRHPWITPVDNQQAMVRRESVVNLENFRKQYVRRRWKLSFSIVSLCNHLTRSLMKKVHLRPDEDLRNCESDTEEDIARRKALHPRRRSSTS

Consider `C=CC(=O)Nc1ccc(C(=O)Nc2[nH]nc3c2CN(C(=O)N[C@H](CN(C)C)c2ccccc2)C3(C)C)cc1`, for which the % of engagement in experiment [1] is -1.6%.

Take `CN(C)CCOc1ccc(-c2nc(-c3ccncc3)c(-c3ccc4c(c3)CC/C4=N\O)[nH]2)cc1`: the values for the % of control in [2], in experiment [3] and in [4] were 100%, 100% and 81%, respectively.

With `CC[C@@H]1[C@H](F)C(=O)N[C@@H]1COc1nccc2cc(C(N)=O)c(OC)cc12` [ZIMLOVISERTIB], the % of inhibition in experiment [5] (at 0.01 µM) was 10.4%; in experiment [5] (at 0.04 µM), -11.1%; in [5] (at 0.2 µM), 2.6%; in experiment [5] (at 1 µM), 7.8%; in experiment [5] (at 5 µM), 18.7%.

With `COc1cc(Nc2nc(C)cc(-c3cnn4nc(OC)ccc34)n2)cc(C(F)(F)F)c1`, the % of control in [6] worked out at 84%.

With `C=CC(=O)Nc1cccc(C(=O)Nc2ccc(Nc3cc(-c4[nH]c(SC)nc4C)ccn3)cc2)c1`, the values for the % of control in experiment [7] (at 1 µM) and in experiment [7] (at 5 µM) were 97% and 73%, respectively.

Take `CN(C)CC#Cc1ccc2[nH]c3c(c2c1)-c1nc(N)ncc1CCC3`: the % of control in experiment [8] is 9.9%.

Regarding `Cc1cc(C)cc([C@H]2c3cc(C)ccc3NC(=O)CN2C(=O)c2ccc(Br)s2)c1`, the % of activity in experiment [9] (at 1 µM) was 101%; in [9] (at 10 µM) it was 92%.

These data come from ChEMBL document CHEMBL5465560, “Selectivity Literature for EUbOPEN Chemogenomic Library” (2024).
